Legend:
[1] = tested on: Dopamine MAB FAM–BHQ-1 (DNA, aptamer) ACGCCAGTTTGAAGGTTCGTTCGCAGGTGTGGAGTGACGT; assay: fluorescence quenching titration (molecular aptamer beacon); conditions: 1x PBS, 2 mM MgCl2; apparent; pH 8.0, 25 °C
[2] = tested on: Dopamine DBS Cy3(+T)–BHQ-1 (DNA, aptamer) AAATACAACAAGAAAAAACTCTCGGGACGACGTACCAGTTTGAAGGTTCGTTCGCAGGTGTGGAGTGACGTCGTCCC; assay: fluorescence strand-displacement titration; conditions: 1x PBS, 2 mM MgCl2; apparent; pH 8.0, 25 °C; displaced 42-nt 5'-BHQ-1 strand, 4 eq
[3] = tested on: Dopamine MAB FAM–Dab (DNA, aptamer, dabcyl-5-methyl-dC at 41 (3' end)) ACGCCAGTTTGAAGGTTCGTTCGCAGGTGTGGAGTGACGTC; assay: fluorescence melting; conditions: 1x PBS, 2 mM MgCl2; derived from two Tm (41.7 ± 0.2, 36.9 ± 0.1); 50 µM dopamine, pH 8.0
[4] = tested on: Dopamine MAB FAM–Dab (DNA, aptamer, dabcyl-5-methyl-dC at 41 (3' end)) ACGCCAGTTTGAAGGTTCGTTCGCAGGTGTGGAGTGACGTC; assay: fluorescence quenching titration (molecular aptamer beacon); conditions: 1x PBS, 2 mM MgCl2; apparent; pH 8.0, 25 °C
[5] = tested on: Dopamine DBS Cy3–BHQ-1 (Position 1/Adjacent) (DNA, aptamer) AAATACAACAAGAAAAAACTCTCGGGACGACGACCAGTTTGAAGGTTCGTTCGCAGGTGTGGAGTGACGTCGTCCC; assay: fluorescence melting; conditions: 1x PBS, 2 mM MgCl2; derived from two Tm (51.7 ± 0.1, 50.9 ± 0.1) of aptamer–displacement duplex; 50 µM dopamine, pH 8.0
[6] = tested on: Dopamine MAB Cy3–BHQ-2 (DNA, aptamer) ACGCCAGTTTGAAGGTTCGTTCGCAGGTGTGGAGTGACGT; assay: fluorescence quenching titration (molecular aptamer beacon); conditions: 1x PBS, 2 mM MgCl2; apparent; pH 8.0, 25 °C
[7] = tested on: Dopamine DBS Cy3(+T)–IABkFQ (DNA, aptamer) AAATACAACAAGAAAAAACTCTCGGGACGACGTACCAGTTTGAAGGTTCGTTCGCAGGTGTGGAGTGACGTCGTCCC; assay: fluorescence strand-displacement titration; conditions: 1x PBS, 2 mM MgCl2; apparent; pH 8.0, 25 °C; displaced 42-nt 5'-IABkFQ strand, 4 eq
[8] = tested on: Dopamine MAB Cy3–BHQ-2 (DNA, aptamer) ACGCCAGTTTGAAGGTTCGTTCGCAGGTGTGGAGTGACGT; assay: fluorescence melting; conditions: 1x PBS, 2 mM MgCl2; derived from two Tm (49.4 ± 0.8, 53.3 ± 0.8); 50 µM dopamine, pH 8.0
[9] = tested on: Dopamine DBS FAM(+T)–BHQ-1 (Position 1) (DNA, aptamer, 6-FAM-dT (azide click) at 33) AAATACAACAAGAAAAAACTCTCGGGACGACGTACCAGTTTGAAGGTTCGTTCGCAGGTGTGGAGTGACGTCGTCCC; assay: fluorescence strand-displacement titration; conditions: 1x PBS, 2 mM MgCl2; apparent; pH 8.0, 25 °C; displaced 42-nt 5'-BHQ-1 strand, 4 eq
[10] = tested on: Dopamine DBS Cy3–BHQ-1 (Int.) (DNA, aptamer) AAATACAACAAGAAAAAACTCTCGGGACGACGACCAGTTTGAAGGTTCGTTCGCAGGTGTGGAGTGACGTCGTCCC; assay: fluorescence strand-displacement titration; conditions: 1x PBS, 2 mM MgCl2; apparent; pH 8.0, 25 °C; displaced 42-nt strand, internal BHQ-1, 4 eq
[11] = tested on: Dopamine DBS Cy3(+T)/BHQ-1 (term.) (DNA, aptamer) AAATACAACAAGAAAAAACTCTCGGGACGACGTCCAGTTTGAAGGTTCGTTCGCAGGTGTGGAGTGACGTCGTCCC; assay: fluorescence melting; conditions: 1x PBS, 2 mM MgCl2; pH 8.0; 50 µM dopamine; derived from two Tm (50.8, 50.0); displacement strand 1:4
[12] = tested on: Dopamine DBS Cy3/BHQ-1 (P3) (DNA, aptamer) AAATACAACAAGAAAAAACTCTCGGGACGACGCCAGTTTGAAGGTTCGTTCGCAGGTGTGGAGTGACGTCGTCCC; assay: fluorescence melting; conditions: 1x PBS, 2 mM MgCl2; pH 8.0; 50 µM dopamine; derived from two Tm (50.3, 50.1); displacement strand 1:4
[13] = tested on: Dopamine DBS FAM(+T)–IABkFQ (DNA, aptamer, 6-FAM-dT (azide click) at 33) AAATACAACAAGAAAAAACTCTCGGGACGACGTACCAGTTTGAAGGTTCGTTCGCAGGTGTGGAGTGACGTCGTCCC; assay: fluorescence strand-displacement titration; conditions: 1x PBS, 2 mM MgCl2; apparent; pH 8.0, 25 °C; displaced 42-nt 5'-IABkFQ strand, 4 eq
[14] = tested on: Dopamine DBS Cy3(+T)/BHQ-1 (int.) (DNA, aptamer) AAATACAACAAGAAAAAACTCTCGGGACGACGTCCAGTTTGAAGGTTCGTTCGCAGGTGTGGAGTGACGTCGTCCC; assay: fluorescence melting; conditions: 1x PBS, 2 mM MgCl2; pH 8.0; 50 µM dopamine; derived from two Tm (50.3, 49.9); displacement strand 1:4
[15] = tested on: Dopamine MAB FAM–BHQ-1 (DNA, aptamer) ACGCCAGTTTGAAGGTTCGTTCGCAGGTGTGGAGTGACGT; assay: fluorescence melting; conditions: 1x PBS, 2 mM MgCl2; derived from two Tm (44.8 ± 0, 37.7 ± 0.1); 50 µM dopamine, pH 8.0
[16] = tested on: Dopamine DBS Cy3–IABkFQ (DNA, aptamer) AAATACAACAAGAAAAAACTCTCGGGACGACGACCAGTTTGAAGGTTCGTTCGCAGGTGTGGAGTGACGTCGTCCC; assay: fluorescence strand-displacement titration; conditions: 1x PBS, 2 mM MgCl2; apparent; pH 8.0, 25 °C; displaced 42-nt 5'-IABkFQ strand, 4 eq
[17] = tested on: Dopamine MAB Cy3–Dab (DNA, aptamer, dabcyl-5-methyl-dC at 41 (3' end)) ACGCCAGTTTGAAGGTTCGTTCGCAGGTGTGGAGTGACGTC; assay: fluorescence melting; conditions: 1x PBS, 2 mM MgCl2; derived from two Tm (43.3 ± 1.0, 53.6 ± 0.3); 50 µM dopamine, pH 8.0

Kd [1]: 3.0 ± 0.1 µM | Kd [2]: 76.7 ± 5.5 µM | Tm [3]: -4.8 °C | Kd [4]: 3.2 ± 0.2 µM | Tm [5]: -0.8 °C | Kd [6]: 12.4 ± 2.0 µM | Kd [7]: 41.8 ± 5.0 µM | Tm [8]: 3.9 °C | Kd [9]: 6.1 ± 0.7 µM | Kd [10]: 34.0 ± 3.3 µM | Tm [11]: -0.8 °C | Tm [12]: -0.2 °C | Kd [13]: 19.6 ± 0.9 µM | Tm [14]: -0.4 °C | Tm [15]: -7.1 °C | Kd [16]: 85.0 ± 15.6 µM | Tm [17]: 10.3 °C
Compound: NCCc1ccc(O)c(O)c1

— paper PMC12700101 (2025)
